Measurements: article PMC5513037, “Examining the influence of specificity ligands and ATP-competitive ligands on the overall effectiveness of bivalent kinase inhibitors” (Proteome Science, 2017)

Experiments:
Test in all cases: KAM-matrix competition in K562 lysate;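 as to 0.001 uM KAM: median log10 fold change of treatment over DMSO control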;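 as to 0.01 uM KAM: median log10 fold change of treatment over DMSO control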;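 as to 0.1 uM KAM: median log10 fold change of treatment over DMSO control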;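 as to 1 uM KAM: median log10 fold change of treatment over DMSO control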;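 as to 10 uM KAM: median log10 fold change of treatment over DMSO control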
Format in all cases: binding
ACTR2 = target: T1, ACTR2 (Homo sapiens, UniProt P61160);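 as to 0.001 uM KAM: median log10 fold change of treatment over DMSO control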;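 as to 0.01 uM KAM: median log10 fold change of treatment over DMSO control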;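 as to 0.1 uM KAM: median log10 fold change of treatment over DMSO control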;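 as to 1 uM KAM: median log10 fold change of treatment over DMSO control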;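 as to 10 uM KAM: median log10 fold change of treatment over DMSO control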
T1 construct: endogenous in cells; host or cells: K562
Method: (§1) Supplement 12953_2017_125_MOESM1_ESM.zip/MS_Supp Info.xlsx, sheet "KAM" | column: 10 uM KAM; 1 uM KAM; 0.1 uM KAM; 0.01 uM KAM; 0.001 uM KAM; RB50

PKD1 = target: T2, PKD1 (Homo sapiens, UniProt P98161);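 as to 0.001 uM KAM: median log10 fold change of treatment over DMSO control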;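 as to 0.01 uM KAM: median log10 fold change of treatment over DMSO control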;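 as to 0.1 uM KAM: median log10 fold change of treatment over DMSO control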;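 as to 1 uM KAM: median log10 fold change of treatment over DMSO control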;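 as to 10 uM KAM: median log10 fold change of treatment over DMSO control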
T2 construct: endogenous in cells; host or cells: K562
Method: as §1

TLK2 = target: T3, TLK2 (Homo sapiens, UniProt Q86UE8);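 as to 0.001 uM KAM: median log10 fold change of treatment over DMSO control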;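 as to 0.01 uM KAM: median log10 fold change of treatment over DMSO control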;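 as to 0.1 uM KAM: median log10 fold change of treatment over DMSO control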;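 as to 1 uM KAM: median log10 fold change of treatment over DMSO control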;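 as to 10 uM KAM: median log10 fold change of treatment over DMSO control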
T3 construct: endogenous in cells; host or cells: K562
T3 sequence (Q86UE8 whole entry): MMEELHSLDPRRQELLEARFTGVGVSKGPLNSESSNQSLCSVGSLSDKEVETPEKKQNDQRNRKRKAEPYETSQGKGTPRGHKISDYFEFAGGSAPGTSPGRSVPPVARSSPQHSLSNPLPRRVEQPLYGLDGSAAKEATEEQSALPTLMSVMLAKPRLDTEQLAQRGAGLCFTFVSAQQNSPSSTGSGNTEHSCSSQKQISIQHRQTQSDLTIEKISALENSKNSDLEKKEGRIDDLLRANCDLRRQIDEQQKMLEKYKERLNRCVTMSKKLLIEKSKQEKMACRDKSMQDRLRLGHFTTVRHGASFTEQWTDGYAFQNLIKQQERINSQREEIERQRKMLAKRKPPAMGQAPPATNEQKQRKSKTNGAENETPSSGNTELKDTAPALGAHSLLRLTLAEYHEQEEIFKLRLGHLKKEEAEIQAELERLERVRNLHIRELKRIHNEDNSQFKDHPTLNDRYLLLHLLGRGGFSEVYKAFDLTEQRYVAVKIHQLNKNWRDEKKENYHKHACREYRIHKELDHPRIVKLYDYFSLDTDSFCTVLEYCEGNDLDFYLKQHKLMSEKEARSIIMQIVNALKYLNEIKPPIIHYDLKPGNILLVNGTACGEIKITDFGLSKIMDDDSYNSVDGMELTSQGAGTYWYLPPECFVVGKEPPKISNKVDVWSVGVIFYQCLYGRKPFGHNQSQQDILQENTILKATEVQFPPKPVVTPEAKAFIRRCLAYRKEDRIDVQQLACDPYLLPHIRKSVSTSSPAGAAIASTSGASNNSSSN
Method: as §1

MASTL = target: T4, MASTL (Homo sapiens, UniProt Q96GX5)
T4 construct: endogenous in cells; host or cells: K562 cell lysate
T4 sequence (Q96GX5 1-879): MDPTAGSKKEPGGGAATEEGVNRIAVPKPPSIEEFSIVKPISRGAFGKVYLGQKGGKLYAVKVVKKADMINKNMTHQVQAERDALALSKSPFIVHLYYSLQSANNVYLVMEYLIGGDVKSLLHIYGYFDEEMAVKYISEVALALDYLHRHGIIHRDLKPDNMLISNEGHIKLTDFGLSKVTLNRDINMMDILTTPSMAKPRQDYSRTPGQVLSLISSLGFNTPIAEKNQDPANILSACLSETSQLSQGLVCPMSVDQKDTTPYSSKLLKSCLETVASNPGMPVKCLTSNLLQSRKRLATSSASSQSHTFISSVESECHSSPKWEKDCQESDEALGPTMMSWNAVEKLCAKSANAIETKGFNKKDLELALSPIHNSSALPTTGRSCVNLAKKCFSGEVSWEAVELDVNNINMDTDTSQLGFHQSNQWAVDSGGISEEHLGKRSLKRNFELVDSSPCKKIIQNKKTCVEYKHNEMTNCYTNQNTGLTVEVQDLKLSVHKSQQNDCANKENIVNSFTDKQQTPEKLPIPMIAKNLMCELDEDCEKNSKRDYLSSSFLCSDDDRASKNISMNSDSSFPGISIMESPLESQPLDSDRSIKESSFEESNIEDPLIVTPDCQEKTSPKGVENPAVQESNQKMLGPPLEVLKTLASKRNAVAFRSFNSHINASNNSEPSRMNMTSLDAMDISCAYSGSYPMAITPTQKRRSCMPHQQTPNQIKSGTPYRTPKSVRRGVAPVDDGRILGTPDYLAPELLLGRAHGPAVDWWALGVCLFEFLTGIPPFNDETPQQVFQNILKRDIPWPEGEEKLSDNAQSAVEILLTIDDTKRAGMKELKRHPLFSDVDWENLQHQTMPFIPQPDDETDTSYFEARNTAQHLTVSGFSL
Method: as §1

FYN = target: T5, FYN (Homo sapiens, UniProt P06241)
T5 construct: endogenous in cells; host or cells: K562
T5 sequence (P06241 whole entry): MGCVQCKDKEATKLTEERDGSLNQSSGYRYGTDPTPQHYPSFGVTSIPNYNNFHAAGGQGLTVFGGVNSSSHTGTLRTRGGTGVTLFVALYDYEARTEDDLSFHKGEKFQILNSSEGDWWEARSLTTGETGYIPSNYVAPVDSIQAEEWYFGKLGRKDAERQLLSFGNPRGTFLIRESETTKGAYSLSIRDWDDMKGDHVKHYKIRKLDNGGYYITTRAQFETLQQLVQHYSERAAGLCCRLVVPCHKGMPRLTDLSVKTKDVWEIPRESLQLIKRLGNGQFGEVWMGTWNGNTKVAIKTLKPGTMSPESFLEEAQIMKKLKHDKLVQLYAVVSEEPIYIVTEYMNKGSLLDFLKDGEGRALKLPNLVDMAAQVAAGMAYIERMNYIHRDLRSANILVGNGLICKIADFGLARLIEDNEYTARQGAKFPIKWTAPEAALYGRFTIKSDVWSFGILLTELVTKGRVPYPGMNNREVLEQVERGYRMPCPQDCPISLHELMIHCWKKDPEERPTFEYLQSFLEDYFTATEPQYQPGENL
Method: as §1

BUB1 = target: T6, BUB1 (Homo sapiens, UniProt O43683);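 as to 0.001 uM KAM: median log10 fold change of treatment over DMSO control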;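 as to 0.01 uM KAM: median log10 fold change of treatment over DMSO control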;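 as to 0.1 uM KAM: median log10 fold change of treatment over DMSO control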;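 as to 1 uM KAM: median log10 fold change of treatment over DMSO control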;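 as to 10 uM KAM: median log10 fold change of treatment over DMSO control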
T6 construct: endogenous in cells; host or cells: K562
T6 sequence (O43683 whole entry): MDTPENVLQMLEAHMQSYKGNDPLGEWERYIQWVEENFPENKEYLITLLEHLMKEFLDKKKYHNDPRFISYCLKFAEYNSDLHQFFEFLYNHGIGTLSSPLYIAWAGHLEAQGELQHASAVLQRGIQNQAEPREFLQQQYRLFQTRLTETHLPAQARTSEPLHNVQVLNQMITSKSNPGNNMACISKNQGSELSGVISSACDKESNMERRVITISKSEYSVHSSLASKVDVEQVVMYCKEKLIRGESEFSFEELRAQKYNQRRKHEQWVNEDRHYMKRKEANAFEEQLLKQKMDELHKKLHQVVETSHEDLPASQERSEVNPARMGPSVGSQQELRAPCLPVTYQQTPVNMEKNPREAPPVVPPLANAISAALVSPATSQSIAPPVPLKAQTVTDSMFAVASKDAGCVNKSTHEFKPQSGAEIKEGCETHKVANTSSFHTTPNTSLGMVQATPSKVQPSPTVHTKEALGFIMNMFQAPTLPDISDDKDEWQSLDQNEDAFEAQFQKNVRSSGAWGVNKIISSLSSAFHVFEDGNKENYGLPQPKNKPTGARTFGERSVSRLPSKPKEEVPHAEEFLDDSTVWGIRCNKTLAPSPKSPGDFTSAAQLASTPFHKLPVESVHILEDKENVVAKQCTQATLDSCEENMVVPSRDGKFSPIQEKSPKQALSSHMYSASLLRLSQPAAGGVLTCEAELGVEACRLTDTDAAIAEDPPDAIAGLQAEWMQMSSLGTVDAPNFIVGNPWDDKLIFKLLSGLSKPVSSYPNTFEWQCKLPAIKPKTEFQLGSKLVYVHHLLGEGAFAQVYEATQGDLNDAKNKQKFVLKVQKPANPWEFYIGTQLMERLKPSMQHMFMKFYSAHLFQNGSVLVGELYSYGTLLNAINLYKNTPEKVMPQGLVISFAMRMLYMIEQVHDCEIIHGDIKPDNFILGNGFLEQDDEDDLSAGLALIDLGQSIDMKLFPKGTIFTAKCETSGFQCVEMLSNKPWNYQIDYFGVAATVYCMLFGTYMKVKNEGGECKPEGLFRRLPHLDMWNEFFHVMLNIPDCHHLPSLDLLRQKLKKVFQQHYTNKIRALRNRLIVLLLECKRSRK
Method: as §1

NEK2 = target: T7, NEK2 (Homo sapiens, UniProt P51955);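 as to 0.001 uM KAM: median log10 fold change of treatment over DMSO control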;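 as to 0.01 uM KAM: median log10 fold change of treatment over DMSO control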;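 as to 0.1 uM KAM: median log10 fold change of treatment over DMSO control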;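 as to 1 uM KAM: median log10 fold change of treatment over DMSO control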;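 as to 10 uM KAM: median log10 fold change of treatment over DMSO control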
T7 construct: endogenous in cells; host or cells: K562
T7 sequence (P51955 1-445): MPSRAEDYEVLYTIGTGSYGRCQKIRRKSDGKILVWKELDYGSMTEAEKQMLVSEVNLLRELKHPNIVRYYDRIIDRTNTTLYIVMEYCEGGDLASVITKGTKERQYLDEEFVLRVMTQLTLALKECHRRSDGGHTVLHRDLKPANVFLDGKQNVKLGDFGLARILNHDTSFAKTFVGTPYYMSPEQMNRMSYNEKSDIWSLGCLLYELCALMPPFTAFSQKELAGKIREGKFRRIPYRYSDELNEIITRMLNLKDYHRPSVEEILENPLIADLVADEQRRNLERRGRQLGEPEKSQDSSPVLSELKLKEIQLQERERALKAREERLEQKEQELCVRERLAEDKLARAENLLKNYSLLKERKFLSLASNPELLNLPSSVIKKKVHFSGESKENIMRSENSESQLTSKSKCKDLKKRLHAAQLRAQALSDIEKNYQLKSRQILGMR
Method: as §1

[1] = KAM 0.001-10 uM, read-out: RB50 (the source's name)
[2] = read-out: RB50 (the source's name)

In the case of `N#CCc1ccc(Nc2nc(NCCCN)cc(Nc3cc(C4CC4)[nH]n3)n2)cc1` [KAM], the IC50 (ACTR2; [1]) is reported as over 10 µM, the “0.001 uM KAM” value (ACTR2; relative to 0 uM KAM = 0) is reported as -0.002123 and the “0.01 uM KAM” value (ACTR2; relative to 0 uM KAM = 0) is reported as 0.01622. The “0.1 uM KAM” value (ACTR2; relative to 0 uM KAM = 0) was 0.01541, the “1 uM KAM” value (ACTR2; relative to 0 uM KAM = 0) was 0.07708 and the “10 uM KAM” value (ACTR2; relative to 0 uM KAM = 0) was 0.05031. The IC50 (PKD1; [1]) was over 10 µM, the “0.001 uM KAM” value (PKD1; relative to 0 uM KAM = 0) was -0.05857 and the “0.01 uM KAM” value (PKD1; relative to 0 uM KAM = 0) was 0.006072. For the same molecule, the “0.1 uM KAM” value (PKD1; relative to 0 uM KAM = 0) was -0.01241, the “1 uM KAM” value (PKD1; relative to 0 uM KAM = 0) was -0.0439 and the “10 uM KAM” value (PKD1; relative to 0 uM KAM = 0) was 0.04844. The IC50 (TLK2; [1]) was over 10 µM, the “0.001 uM KAM” value (TLK2; relative to 0 uM KAM = 0) was -0.002954 and the “0.01 uM KAM” value (TLK2; relative to 0 uM KAM = 0) was -0.03195. For the same molecule, the “0.1 uM KAM” value (TLK2; relative to 0 uM KAM = 0) was -0.07515, the “1 uM KAM” value (TLK2; relative to 0 uM KAM = 0) was 0.001633 and the “10 uM KAM” value (TLK2; relative to 0 uM KAM = 0) was -0.09222. The “median Log10 fold change” value (MASTL; 0.001 uM KAM) was 0.009734, the “median Log10 fold change” value (MASTL; 0.01 uM KAM) was -0.004391 and the “median Log10 fold change” value (MASTL; 0.1 uM KAM) was -0.2197. The “median Log10 fold change” value (MASTL; 1 uM KAM) was -0.3171, the “median Log10 fold change” value (MASTL; 10 uM KAM) was -0.3645 and the IC50 (MASTL; [2]) was 0.948 µM. The “median Log10 fold change” value (FYN; 0.001 uM KAM) was -0.01373, the “median Log10 fold change” value (FYN; 0.01 uM KAM) was 0.006068 and the “median Log10 fold change” value (FYN; 0.1 uM KAM) was -0.1646. The “median Log10 fold change” value (FYN; 1 uM KAM) was -0.3588, the “median Log10 fold change” value (FYN; 10 uM KAM) was -0.4538 and the IC50 (FYN; [2]) was 0.754 µM. For the same molecule, the IC50 (BUB1; [1]) was over 10 µM, the “0.001 uM KAM” value (BUB1; relative to 0 uM KAM = 0) was -0.05097 and the “0.01 uM KAM” value (BUB1; relative to 0 uM KAM = 0) was -0.002823. The “0.1 uM KAM” value (BUB1; relative to 0 uM KAM = 0) was -0.07998, the “1 uM KAM” value (BUB1; relative to 0 uM KAM = 0) was -0.1399 and the “10 uM KAM” value (BUB1; relative to 0 uM KAM = 0) was -0.1894. For the same molecule, the IC50 (NEK2; [1]) was 5.87 µM, the “0.001 uM KAM” value (NEK2; relative to 0 uM KAM = 0) was 0.005896 and the “0.01 uM KAM” value (NEK2; relative to 0 uM KAM = 0) was 0.02457. For the same molecule, the “0.1 uM KAM” value (NEK2; relative to 0 uM KAM = 0) was -0.07556, the “1 uM KAM” value (NEK2; relative to 0 uM KAM = 0) was -0.1875 and the “10 uM KAM” value (NEK2; relative to 0 uM KAM = 0) was -0.3106.
